# Data published in patent US9168259B2 (GRÜNENTHAL GMBH, priority 2010, dated 2015).
# Read-outs that look alike come from different tables or passages of the source.
# Biological target: T1, KCNQ2/3 channels (Homo sapiens, UniProt O43525+O43526)
# T1 construct: expressed in transfected cells
# Experiment: Fluorescence assay using a voltage sensitive dye (fluorimetry)
# Format: cell-based
# Details: for EC50: IC50 where % efficacy is negative, read-out: Fluorimetry EC50/IC50
# Text: Method I. Fluorescence Assay Using a Voltage Sensitive Dye (Fluorimetry)
# These voltage-sensitive dyes are fluorescent dyes and, therefore, are forming the link between cell potential influenced by KCNQ modulation and fluorescence intensity. A KCNQ agonist leads to an opening of the channel, potassium and dye efflux, a following hyperpolarization and a reduction of the inner fluorescence intensity in a kinetic protocol. If applying an ion jump by KCl depolarization, KCNQ agonists increase the ΔF/F value. An antagonist performs vice versa, respectively.
# Therefore, ‘fluorimetry EC50’ is a measure for the compound potency. The compound efficacy is mirrored by ‘fluorimetry % efficacy’ (‘% Efficacy’) and refers to the maximum response achievable by the test compound, i.e. the plateau effect. This drug's plateau effect is related to the plateau effect, which can be achieved by applying a saturated concentration of a reference compound, e.g. Retigabine (50 μM), in independent wells of the same experimental plate or series.
# […] CHO-K1 cells expressing KCNQ2/3 channels are cultivated adherently at 37° C., 5% CO2 and 95% humidity in cell culture bottles (e.g. 80 cm^2 TC flasks, Nunc) with DMEM-high glucose (Sigma Aldrich, D7777) including 10% FCS (PAN Biotech, e.g. 3302-P270521) or alternatively MEM Alpha Medium (1×, liquid, Invitrogen, #22571), 10% fetal calf serum (FCS) (Invitrogen, #10270-106, heat-inactivated) and the necessary selection antibiotics.
# The cell number is determined using a CASY™ cell counter (TCC, Schärfe System). Depending on the optimal density for each individual cell line, 20,000-30,000 cells/well/100 μl are seeded onto 96-well Corning™ CellBIND™ assay plates (Flat Clear Bottom Black Polystyrene Microplates, #3340). Freshly seeded cells are then left to settle for one hour at room temperature, followed by incubation for 24 hours at 37° C., 5% CO2 and 95% humidity.
# The voltage-sensitive fluorescent dye from the Membrane Potential Assay Kit (Red™ Bulk format part R8123 for FLIPR, MDS Analytical Technologies™) is prepared by dissolving the contents of one vessel Membrane Potential Assay Kit Red Component A in 200 ml of extracellular buffer (ES buffer, 120 mM NaCl, 1 mM KCl, 10 mM HEPES, 2 mM CaCl2, 2 mM MgCl2, 10 mM glucose; pH 7.4). After removal of the nutrient medium, the cells are washed once with 200 μl of ES buffer, then loaded for 45 min at room temperature in 100 μl of dye solution in the dark.
# Fluorescence measurements are carried out in a BMG Labtech FLUOstar™, BMG Labtech NOVOstar™ or BMG Labtech POLARstar™ instrument (525 nm excitation, 560 nm emission, Bottom Read mode). After incubation with the dye, 50 μl of the test substances in the desired concentrations, or 50 μl of ES buffer for control purposes, are applied to the wells of the assay plate and incubated for 30 min at room temperature while being shielded from light. The fluorescence intensity of the dye is then measured for 5 min and the fluorescence value F1 of each well is thus determined at a given, constant time. 15 μl of a KCl solution are then added to each well (final concentration of potassium ions 92 mM). The change in fluorescence intensity is subsequently monitored until all the relevant values have been obtained (mainly 5-30 min). At a given time post KCl application, a fluorescence value F2 is determined, in this case at the time of the fluorescence peak.
# For calculation, the fluorescence intensity F2 is corrected for the fluorescence intensity F1, and the activity (ΔF/F) of the target compound on the potassium channel is determined as follows:
# In order to determine whether a substance has agonistic activity,
# [formula] can be related to
# [formula] of control wells.
# [formula] is determined by adding to the well only the buffer solution instead of the test substance, determining the value F1K of the fluorescence intensity, adding the potassium ions as described above, and measuring a value F2K of the fluorescence intensity.
# [1] = CHO-K1, plateau effect relative to saturated retigabine (50 μM) = 100%, CHO-K1 cells expressing KCNQ2/3, negative values = antagonistic, read-out: Fluorimetry % efficacy (retigabine = 100%)
# [2] = CHO-K1 cells expressing KCNQ2/3
# T1 sequence (O43526 whole entry): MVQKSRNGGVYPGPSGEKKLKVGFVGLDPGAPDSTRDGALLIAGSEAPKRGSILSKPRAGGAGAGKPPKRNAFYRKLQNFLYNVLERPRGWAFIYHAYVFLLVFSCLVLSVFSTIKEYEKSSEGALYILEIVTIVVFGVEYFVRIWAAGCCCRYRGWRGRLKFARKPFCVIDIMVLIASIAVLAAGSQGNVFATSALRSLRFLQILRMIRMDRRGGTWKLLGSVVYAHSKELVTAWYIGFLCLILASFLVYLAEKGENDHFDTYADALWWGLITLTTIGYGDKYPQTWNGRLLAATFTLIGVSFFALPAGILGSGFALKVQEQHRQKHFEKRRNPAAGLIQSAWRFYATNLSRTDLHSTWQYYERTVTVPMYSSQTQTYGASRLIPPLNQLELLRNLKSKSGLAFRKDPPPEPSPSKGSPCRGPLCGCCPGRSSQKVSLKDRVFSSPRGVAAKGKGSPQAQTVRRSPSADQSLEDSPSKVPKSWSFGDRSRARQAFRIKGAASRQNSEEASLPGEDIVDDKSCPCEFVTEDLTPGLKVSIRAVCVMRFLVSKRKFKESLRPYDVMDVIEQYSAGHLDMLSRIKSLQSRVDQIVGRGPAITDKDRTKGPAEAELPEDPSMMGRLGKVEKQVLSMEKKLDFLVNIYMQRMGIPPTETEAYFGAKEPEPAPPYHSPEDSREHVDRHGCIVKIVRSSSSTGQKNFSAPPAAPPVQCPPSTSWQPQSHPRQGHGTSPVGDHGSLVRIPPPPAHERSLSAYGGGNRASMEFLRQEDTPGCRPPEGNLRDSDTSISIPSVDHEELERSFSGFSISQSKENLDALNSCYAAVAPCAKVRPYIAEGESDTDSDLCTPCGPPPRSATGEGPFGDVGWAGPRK
# T1 sequence (O43525 whole entry): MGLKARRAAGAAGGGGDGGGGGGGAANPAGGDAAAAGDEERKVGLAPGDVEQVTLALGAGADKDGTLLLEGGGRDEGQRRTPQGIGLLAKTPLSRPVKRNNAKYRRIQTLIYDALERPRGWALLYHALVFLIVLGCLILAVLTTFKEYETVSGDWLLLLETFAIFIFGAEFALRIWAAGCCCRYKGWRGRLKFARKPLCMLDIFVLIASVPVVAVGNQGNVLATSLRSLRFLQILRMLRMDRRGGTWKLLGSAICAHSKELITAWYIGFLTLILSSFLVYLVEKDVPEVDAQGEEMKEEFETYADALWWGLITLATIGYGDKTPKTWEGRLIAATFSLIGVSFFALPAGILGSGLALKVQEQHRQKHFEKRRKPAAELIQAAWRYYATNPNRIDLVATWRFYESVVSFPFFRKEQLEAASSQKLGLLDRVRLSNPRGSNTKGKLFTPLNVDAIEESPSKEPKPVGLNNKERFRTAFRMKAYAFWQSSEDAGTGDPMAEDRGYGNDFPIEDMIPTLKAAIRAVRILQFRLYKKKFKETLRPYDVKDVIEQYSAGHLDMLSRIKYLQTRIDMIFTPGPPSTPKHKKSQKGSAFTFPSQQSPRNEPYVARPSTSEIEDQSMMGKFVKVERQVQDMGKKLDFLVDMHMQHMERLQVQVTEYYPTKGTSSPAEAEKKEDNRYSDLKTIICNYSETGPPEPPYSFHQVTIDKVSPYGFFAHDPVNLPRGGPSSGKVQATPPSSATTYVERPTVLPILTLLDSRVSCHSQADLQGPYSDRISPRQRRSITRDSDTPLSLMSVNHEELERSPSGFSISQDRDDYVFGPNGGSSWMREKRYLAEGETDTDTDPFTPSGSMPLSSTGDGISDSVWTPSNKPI
SMILES,Emax [1] [%],EC50 [2] [nM],"Emax (CHO-K1, read-out: Fluorimetry % efficacy (retigabine = 100%)) [%]"
"CCN(C)c1nc(N2CCOCC2)cc(C)c1C(=O)NCc1ccc(F)cc1 [Example 174, 2-(Ethyl-methyl-amino)-N-[(4-fluorophenyl)-methyl]-4-methyl-6-morpholin-4-yl-pyridine-3-carboxylic acid amide]",221,422,–
"CCSc1nc(N2CCOCC2)cc(C)c1C(=O)NCc1ccc(C(F)(F)F)c(F)c1 [Example 142, 2-Ethylsulfanyl-N-[[3-fluoro-4-(trifluoromethyl)-phenyl]-methyl]-4-methyl-6-morpholin-4-yl-pyridine-3-carboxylic acid amide]",125,38,–
"Cc1cc(N2CCOCC2)nc(C2CC2)c1C(=O)NCCCC(F)(F)F [Example 329, 2-Cyclopropyl-4-methyl-6-morpholin-4-yl-N-(4,4,4-trifluoro-butyl)-pyridine-3-carboxylic acid amide]",170,763,–
"CCSc1nc(N2CCn3cc(C(F)(F)F)nc3C2)cc(C)c1C(=O)NCc1cccc(F)c1 [Example 243, 2-Ethylsulfanyl-N-[(3-fluorophenyl)-methyl]-4-methyl-6-[2-(trifluoromethyl)-5,6,7,8-tetrahydro-imidazo[1,2-a]pyrazin-7-yl]-pyridine-3-carboxylic acid amide]",105,1280,–
"Cc1cc(N2CCOC[C@H]2C)nc(C(C)C)c1C(=O)NCc1ccc(Cl)cc1 [Example 265, N-[(4-Chlorophenyl)-methyl]-2-isopropyl-4-methyl-6-[(3R)-3-methyl-morpholin-4-yl]-pyridine-3-carboxylic acid amide]",206,28,–
"CSc1nc(N2CCOCC2)cc(C)c1C(=O)NCc1ccc(F)cc1 [Example 154, N-[(4-Fluorophenyl)-methyl]-4-methyl-2-methylsulfanyl-6-morpholin-4-yl-pyridine-3-carboxylic acid amide]",154,394,–
"COCCOc1nc(N2CCOCC2)cc(C)c1C(=O)NCc1cccc(F)c1 [Example 21, N-[(3-Fluorophenyl)-methyl]-2-(2-methoxy-ethoxy)-4-methyl-6-morpholin-4-yl-pyridine-3-carboxylic acid amide]",146,1220,–
"CCSc1nc(N2CCOCC2)cc(C)c1C(=O)NCCCC1CC1 [Example 141, N-(3-Cyclopropyl-propyl)-2-ethylsulfanyl-4-methyl-6-morpholin-4-yl-pyridine-3-carboxylic acid amide]",167,242,–
"CCOc1nc(N2CCOCC2)cc(C)c1C(=O)NCc1ccccc1-c1ccccc1 [Example 92, 2-Ethoxy-4-methyl-6-morpholin-4-yl-N-[(2-phenyl-phenyl)-methyl]-pyridine-3-carboxylic acid amide]",-79,128,–
"CCSc1nc(N2CCOCC2)cc(C)c1C(=O)NCc1cccc(F)n1 [Example 45, 2-Ethylsulfanyl-N-[(6-fluoro-pyridin-2-yl)-methyl]-4-methyl-6-morpholin-4-yl-pyridine-3-carboxylic acid amide]",151,3140,–
CCSc1nc(N2CCC(C(=O)OC)CC2)cc(C)c1C(=O)NCc1cccc(F)c1 [Example 13],–,1090,145
"CCCC1COCCN1c1cc(C)c(C(=O)NCc2cccc(F)c2)c(SCC)n1 (stereo not drawn) [Example 213, 2-Ethylsulfanyl-N-[(3-fluorophenyl)-methyl]-4-methyl-6-(3-propyl-morpholin-4-yl)-pyridine-3-carboxylic acid amide]",131,49,–
"CCSc1nc(N2CCOC[C@@H]2COC)cc(C)c1C(=O)NCc1ccc(F)cc1 [Example 249, 2-Ethylsulfanyl-N-[(4-fluorophenyl)-methyl]-6-[(3S)-3-(methoxymethyl)-morpholin-4-yl]-4-methyl-pyridine-3-carboxylic acid amide]",129,82,–

# The remaining molecules from weak to strong by EC50 [2], led by results:
Emax [1] [%],EC50 [2] [nM],SMILES,"Emax (CHO-K1, read-out: Fluorimetry % efficacy (retigabine = 100%)) [%]"
165,4190,"CCSc1nc(N2CCOCC2)cc(C)c1C(=O)NCCC(O)c1ccccc1 (stereo not drawn) [Example 227, 2-Ethylsulfanyl-N-(3-hydroxy-3-phenyl-propyl)-4-methyl-6-morpholin-4-yl-pyridine-3-carboxylic acid amide]",–
180,2450,"CCSc1nc(N2CCOCC2)cc(C)c1C(=O)NCC(O)CC(C)C (stereo not drawn) [Example 228, 2-Ethylsulfanyl-N-(2-hydroxy-4-methyl-pentyl)-4-methyl-6-morpholin-4-yl-pyridine-3-carboxylic acid amide]",–
192,826,"CCCc1nc(N2CCOCC2)cc(C)c1C(=O)NCCCC(F)(F)F [Example 320, 4-Methyl-6-morpholin-4-yl-2-propyl-N-(4,4,4-trifluoro-butyl)-pyridine-3-carboxylic acid amide]",–
142,785,"CCSc1nc(N(C)CCCOC)cc(C)c1C(=O)NCc1cccc(F)c1 [Example 128, 2-Ethylsulfanyl-N-[(3-fluorophenyl)-methyl]-6-(3-methoxy-propyl-methyl-amino)-4-methyl-pyridine-3-carboxylic acid amide]",–
203,357,"CCSc1nc(N2CCOCC2)cc(C)c1C(=O)NCCCC(F)(F)F [Example 84, 2-Ethylsulfanyl-4-methyl-6-morpholin-4-yl-N-(4,4,4-trifluoro-butyl)-pyridine-3-carboxylic acid amide]",–
61,281,"CCSc1nc(N2CCOCC2)cc(C)c1C(=O)NCc1cc(C)cc(C)c1 [Example 208, N-[(3,5-Dimethyl-phenyl)-methyl]-2-ethylsulfanyl-4-methyl-6-morpholin-4-yl-pyridine-3-carboxylic acid amide]",–
137,274,"CCSc1nc(N2CCOC(C)(C)C2)cc(C)c1C(=O)NCc1cccc(F)c1 [Example 252, 6-(2,2-Dimethyl-morpholin-4-yl)-2-ethylsulfanyl-N-[(3-fluorophenyl)-methyl]-4-methyl-pyridine-3-carboxylic acid amide]",–
223,247,"CCSc1nc(N2CCOCC2)cc(C)c1C(=O)NCCC(O)C(C)(C)C (stereo not drawn) [Example 267, 2-Ethylsulfanyl-N-(3-hydroxy-4,4-dimethyl-pentyl)-4-methyl-6-morpholin-4-yl-pyridine-3-carboxylic acid amide]",–
221,168,"Cc1cc(N2CCOC[C@H]2C)nc(N(C)C)c1C(=O)NCCCC(C)(C)C [Example 183, 2-Dimethylamino-N-(4,4-dimethyl-pentyl)-4-methyl-6-[(3R)-3-methyl-morpholin-4-yl]-pyridine-3-carboxylic acid amide]",–
158,152,"CSc1nc(N2CCOCC2)cc(C)c1C(=O)NCc1ccc(F)c(F)c1 [Example 155, N-[(3,4-Difluoro-phenyl)-methyl]-4-methyl-2-methylsulfanyl-6-morpholin-4-yl-pyridine-3-carboxylic acid amide]",–
124,96,"Cc1cc(N2CCOCC2)nc(C2CC2)c1C(=O)NCc1ccc(C(F)(F)F)cc1 [Example 334, 2-Cyclopropyl-4-methyl-6-morpholin-4-yl-N-[[4-(trifluoromethyl)-phenyl]-methyl]-pyridine-3-carboxylic acid amide]",–
